Assay results reported in ChEMBL document CHEMBL1201862, “PubChem BioAssay data set” (2004).
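Values below derive from 48-hour exposures of cells grown in 96-well plates, with endpoints linearly interpolated between the two concentrations bracketing the appropriate inhibition level. At the GI50, growth is halved.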 Calls of active or inactive are those of the source. Cut-off read from the data, not from the text of the source: active = GI50 up to about 1.1 µM and inactive = higher.

Columns and labels:
Experiment in all cases: inhibition of tumour cell growth, NCI panel, 48 h
A549 = tested on: A549
COLO 205 = tested on: COLO 205
HCC 2998 = tested on: HCC 2998
HCT-116 = tested on: HCT-116
HOP-62 = tested on: HOP-62
Hs-578T = tested on: Hs-578T
M14 = tested on: M14
MDA-MB-231 = tested on: MDA-MB-231
MOLT-4 = tested on: MOLT-4
Malme-3M = tested on: Malme-3M
NCI-H23 = tested on: NCI-H23
NCI-H522 = tested on: NCI-H522
SF-539 = tested on: SF-539
SK-OV-3 = tested on: SK-OV-3
SNB-75 = tested on: SNB-75
SR = tested on: SR
SW-620 = tested on: SW-620
TK-10 = tested on: TK-10
UACC-62 = tested on: UACC-62

Measured: GI50

CCOC(=O)C(NCc1ccccc1)(NC(=O)c1ccccc1)C(F)(F)F (stereo not drawn)
inactive: A549 > 100 µM | COLO 205 > 100 µM | HCC 2998 > 100 µM | HCT-116 > 100 µM | HOP-62 > 100 µM | Hs-578T > 100 µM | M14 > 100 µM | MDA-MB-231 21.4 µM | MOLT-4 32.3 µM | Malme-3M > 100 µM | NCI-H23 > 100 µM | NCI-H522 35.6 µM | SF-539 > 100 µM | SK-OV-3 > 100 µM | SNB-75 68.1 µM | SR 32.1 µM | SW-620 43.6 µM | TK-10 > 100 µM | UACC-62 > 100 µM

[O-][s+]1c2c(Cc3ccccc3)c(Cc3ccccc3)c1CCc1cccc(c1)CC2
inactive: A549 13.9 µM | COLO 205 17.5 µM | HCC 2998 14.1 µM | HCT-116 8.99 µM | Hs-578T 18.2 µM | M14 14.7 µM | MDA-MB-231 15.9 µM | MOLT-4 14 µM | Malme-3M 17.1 µM | NCI-H23 12.7 µM | NCI-H522 11.3 µM | SF-539 18.7 µM | SK-OV-3 10.7 µM | SNB-75 13 µM | SR 17.2 µM | SW-620 24.5 µM | TK-10 19.1 µM | UACC-62 10.9 µM

Cc1ccc(S(=O)(=O)Oc2ccc(OS(=O)(=O)c3ccc(C)cc3)c3c2C(=O)c2ccccc2C3=O)cc1
inactive: A549 > 100 µM | COLO 205 > 100 µM | HCC 2998 > 100 µM | HCT-116 > 100 µM | HOP-62 37.8 µM | Hs-578T 38.7 µM | M14 > 100 µM | MDA-MB-231 66.7 µM | MOLT-4 > 100 µM | Malme-3M > 100 µM | NCI-H23 > 100 µM | NCI-H522 > 100 µM | SF-539 33 µM | SK-OV-3 > 100 µM | SNB-75 16.8 µM | SR > 100 µM | SW-620 > 100 µM | TK-10 > 100 µM | UACC-62 > 100 µM

COc1ccccc1[S+]([O-])Nc1ccccc1 (stereo not drawn)
inactive: A549 74.6 µM | COLO 205 > 100 µM | HCC 2998 83.2 µM | HCT-116 51.1 µM | HOP-62 > 100 µM | Hs-578T 76 µM | MDA-MB-231 > 100 µM | MOLT-4 32.2 µM | Malme-3M > 100 µM | NCI-H23 > 100 µM | NCI-H522 38.2 µM | SF-539 25.3 µM | SR 21.6 µM | SW-620 30.7 µM | TK-10 > 100 µM | UACC-62 10.7 µM

O=C(O)c1ccc(Nc2nc3ccccc3nc2C(=O)O)cc1
inactive: A549 > 100 µM | COLO 205 > 100 µM | HCC 2998 > 100 µM | HCT-116 > 100 µM | HOP-62 > 100 µM | Hs-578T > 100 µM | M14 > 100 µM | MDA-MB-231 > 100 µM | MOLT-4 > 100 µM | Malme-3M > 100 µM | NCI-H23 > 100 µM | NCI-H522 > 100 µM | SF-539 > 100 µM | SK-OV-3 > 100 µM | SNB-75 > 100 µM | SR > 100 µM | TK-10 > 100 µM | UACC-62 > 100 µM

CC(=O)Nc1sccc1S(=O)(=O)c1ccc(Cl)cc1
inactive: A549 > 100 µM | COLO 205 > 100 µM | HCC 2998 > 100 µM | HCT-116 > 100 µM | Hs-578T > 100 µM | M14 > 100 µM | MDA-MB-231 > 100 µM | MOLT-4 > 100 µM | Malme-3M > 100 µM | NCI-H23 > 100 µM | NCI-H522 > 100 µM | SF-539 > 100 µM | SK-OV-3 > 100 µM | SNB-75 55.6 µM | SR > 100 µM | SW-620 > 100 µM | TK-10 > 100 µM | UACC-62 > 100 µM
